Assay results from patent US8524754B2, “Polymorphic, crystalline and mesophase forms of sodium 2-(5-bromo-4-(4-cyclopropylnaphthalen-1-yl)-4H-1,2,4-triazol-3-ylthio) acetate, and uses thereof” (Ardea Biosciences, Inc., priority 2010, dated 2013).

Assay: Solid-state stability of packaged Form A / crystalline polymorphs under accelerated and long term conditions
Format: physicochemical
Details: for degradation of packaged Form A: double LDPE bag inside heat sealed anhydrous foil bag in HDPE container
Experimental: Form A of sodium 2-(5-bromo-4-(4-cyclopropylnaphthalen-1-yl)-4H-1,2,4-triazol-3-ylthio)acetate was tested under various conditions to determine thermodynamic stability. […] Packaging was in a double low density polyethylene plastic bag inside a heat sealed anhydrous foil bag in an HDPE container.
The improved stability of the crystalline polymorphs of sodium 2-(5-bromo-4-(4-cyclopropylnaphthalen-1-yl)-4H-1,2,4-triazol-3-ylthio)acetate provides for the preparation of pharmaceutical dosage forms displaying reduced variability in the dosage present in a given dosage form, reduction in the presence of impurities in the final pharmaceutical product, and an improved shelf life of formulated dosage forms when compared to the pharmaceutical dosage form prepared with the amorphous solid state form of the carboxylic acid.

With O=C([O-])CSc1nnc(Br)n1-c1ccc(C2CC2)c2ccccc12.[Na+] [Form A, sodium 2-(5-bromo-4-(4-cyclopropylnaphthalen-1-yl)-4H-1,2,4-triazol-3-ylthio)acetate] the “degradation of packaged Form A” value (accelerated conditions (40° C.-75% RH), 6 months) was “No degradation”, the “degradation of packaged Form A” value (long term conditions (25° C.-60% RH), 12 months) was “no degradation” and the “stability in comparison to the amorphous solid state form of the carboxylic acid (free acid)” value (solid state) was “improvement over the solid state amorphous free acid”.
